Target: human ER beta (Homo sapiens, UniProt Q92731)
Assay: ER beta FP binding assay (fluorescence polarisation, Fluormone EL Red ligand)
Settings: 6 nM ERbeta protein, 1.5 nM ER FP ligand, 3 hours at room temperature; read-out: pIC50 in the ER beta FP binding assay (converted)
Method: Assay Buffer (AB) (50 mM MOPES pH 7.5, 50 mM NaF, 2.5 mM CHAPs), in deionized water, 5 mM 1,4 dithiothreitol (DTT) added on day of the experiment. The appropriate amount of AB was placed in a plastic tube, adding solid DTT before the assay was run. AB with DTT was distributed to plastic tubes. We have found use of plastic to be important vs glass. A final concentration of 6 nM ERbeta protein was added to the tube followed by gentle inversion. A final concentration of 1.5 nM ER FP ligand (Fluormone™ EL Red 200 nM in 20 mM Tris, 90% Methanol purchased from Invitrogen catalogue no P3030) was added to the same tube followed by gentle inversion. This was allowed to sit for 5-10 minutes before adding it to the 384 assay plate. Similar protocol was used for ERalpha with a final concentration of 4 nM ERalpha and 1.5 nM ER FP ligand.
384 plates containing test compounds dissolved in 100% DMSO at 1 mM were serially diluted (1:3) by a Beckman FX. Serial diluted test compounds were added, 0.1 μL, to the assay plates with a maximum final concentration of 10 uM. Once the assay plates were ready, 10 μL of the above reagents were added to the appropriate set of plates with the Thermo combi. These plates were then sealed and place at room temperature for 3 hours.
The plates were then placed on the Molecular Devices Analyst and counted (excitation 535 nm, emission 590 nm with a 561 Dichroic mirror). Data was normalized to control then fitted to a non-linear least squares algorithm (see below).
pIC50 Calculation y=a+((b−a)/(1+(10^x/10^c){circumflex over (0)}d)
The amino acid sequence of human ER beta used in this assay is […]

Sequence of human ER beta (Q92731 with tags, fused parts or gaps): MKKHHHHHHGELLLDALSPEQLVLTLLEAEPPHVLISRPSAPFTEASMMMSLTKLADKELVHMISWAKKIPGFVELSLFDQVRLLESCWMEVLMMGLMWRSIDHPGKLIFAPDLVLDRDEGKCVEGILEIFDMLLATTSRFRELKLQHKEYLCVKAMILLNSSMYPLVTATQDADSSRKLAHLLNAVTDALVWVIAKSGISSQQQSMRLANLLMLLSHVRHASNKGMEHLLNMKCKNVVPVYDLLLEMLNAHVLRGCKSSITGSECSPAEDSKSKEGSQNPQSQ

| SMILES | IC50 |
| --- | --- |
| Oc1ccc(-n2ccc3c(O)c(F)cc(Br)c32)cc1F [Example 4, 7-bromo-5-fluoro-1-(3-fluoro-4-hydroxyphenyl)-1H-indol-4-ol] | < 10 nM |
| Oc1ccc(-n2ccc3c(O)ccc(Cl)c32)cc1F [Example 7, 7-Chloro-1-(3-fluoro-4-hydroxyphenyl)-1H-indol-4-ol] | < 10 nM |

Next, values leading:

| IC50 | SMILES |
| --- | --- |
| < 10 nM | Oc1ccc(-n2ccc3c(O)c(F)ccc32)cc1F [Example 5, 5-fluoro-1-(3-fluoro-4-hydroxyphenyl)-1H-indol-4-ol] |
| < 10 nM | N#Cc1cc(O)c2ccn(-c3ccc(O)c(F)c3)c2c1 [Example 8, 1-(3-Fluoro-4-hydroxyphenyl)-4-hydroxy-1H-indole-6-carbonitrile] |
| < 10 nM | Oc1ccc(-n2ccc3c(O)cc(F)cc32)cc1F [Example 9, 6-Fluoro-1-(3-fluoro-4-hydroxyphenyl)-1H-indol-4-ol] |
| < 10 nM | Oc1ccc(-n2ccc3c(O)cc(F)cc32)cc1 [Example 10, 6-fluoro-1-(4-hydroxyphenyl)-1H-indol-4-ol] |
